# Experimental data published in patent US10052323B2, “Pharmaceutical compositions of 7-(6-(2-hydroxypropan-2-yl)pyridin-3-yl)-1-(trans)-4-methoxycyclohexyl)-3,4-dihydropyrazino [2,3-b]pyrazin-2(1H)-one, a solid form thereof and methods of their use” (Signal Pharmaceuticals, LLC, priority 2013, dated 2018).
# Read-outs that look alike come from different tables or passages of the source.
# Experiments:
# [1] = Hygroscopicity by moisture adsorption/desorption (DVS); assay type: physicochemical
# Experimental: Sorption isotherms were obtained using a SMS DVS Intrinsic moisture sorption analyser, controlled by DVS Intrinsic Control software v1.0.0.30. The sample temperature was maintained at 25° C. by the instrument controls. The humidity was controlled by mixing streams of dry and wet nitrogen, with a total flow rate of 200 mL/min. The relative humidity was measured by a calibrated Rotronic probe (dynamic range of 1.0-100% RH), located near the sample. The weight change, (mass relaxation) of the sample as a function of % RH was constantly monitored by the microbalance (accuracy±0.005 mg). Typically 5-20 mg of sample was placed in a tared mesh stainless steel basket under ambient conditions. The sample was loaded and unloaded at 40% RH and 25° C. (typical room conditions). The standard isotherm was performed at 25° C. at 10% RH intervals over a 0-90% RH range. Data analysis was undertaken in Microsoft Excel using DVS Analysis Suite v6.0.0.7.
# Hygroscopicity of Form A was determined by moisture adsorption and desorption.
# [2] = Susceptibility of Compound A to hydrolysis; assay type: physicochemical
# [3] = Phase 1 crossover pharmacokinetics after a single oral 20 mg dose of tablet and capsule formulations; assay type: in vivo, human
# Experimental: Certain formulations provided herein were evaluated in a Phase 1, open-label, randomized, crossover study.
# On Day 1 of Period 1, following an overnight fast of at least 8 hours, subjects were randomized to one of the following 3 sequences to receive Treatment A, B or C (Table 35).
# In Treatment A, one 20-mg reference Compound A API-in-capsule was administered orally after at least 8 hour fast with 240 mL of non-carbonated, room temperature water. In Treatment B, one 20-mg tablet of Compound A (Tablet Formulation XIII) was administered under fasted conditions. In Treatment C, four 5-mg tablets of Compound A (Tablet Formulation XIV) were administered under fasted conditions. The 20-mg tablet and four 5-mg tablets were administered orally after at least 8 hour fast with 240 mL of non-carbonated, room temperature water.
# For each period, serial blood samples were collected before dosing (zero hour) and at 0.5, 1, 1.5, 2, 2.5, 3, 4, 6, 8, 12, 24, 48, 72, and 96 hours after dosing. Plasma concentrations of Compound A were determined for determining PK parameters, such as AUC0-t, AUC0-∞, Cmax, Tmax, t1/2, CL/F, and Vz/F for Compound A. Plasma PK parameters were calculated using non compartmental methods. Analyses of variance (ANOVA) were performed on the natural log-transformed AUC0-t, AUC0-∞, and Cmax for Compound A. The geometric mean ratios (test/reference) and their 90% confidence intervals were also calculated. For Tmax, non parametric analysis was used to produce median differences.
# [4] = Phase 1 food effect study (Part 2), single 20-mg oral dose of Compound A tablet, fed vs fasted; assay type: in vivo, human
# Experimental: The primary objectives of this study are: to characterize the biotransformation and excretion of Compound A following a single 20 mg oral dose of Compound A capsule containing a microtracer of [^14C]-Compound A solution in healthy male subjects (Part 1) and to evaluate the effect of a high-fat meal on the pharmacokinetics (PK) of Compound A following a single oral 20-mg dose of Compound A tablet (Part 2).
# Part 2 design: Part 2 will be a 2-period crossover study; in Period 1, subjects (n=12) will be randomized to receive either an oral 20 mg dose of Compound A tablet (Treatment B) under fed (n=6) or fasted (n=6) conditions. In Period 2, subjects will receive Treatment B under converse conditions based on treatment assignment in Period 1. After screening, subjects (n=12) eligible for participation in the study will return to the study center on Day −1 for baseline assessments. Subjects who continue to be qualified for participation in the study will be randomized and enrolled in the study on the morning of Day 1. Subjects (n=6) will be enrolled and randomized to receive Treatment B under fed or fasted conditions on the morning of Day 1 after fasting for at least 8 hours. Fed subjects will be served a standard high fat meal breakfast, or its equivalent, that must be consumed within 30 minutes from serving. Dosing must occur 30 minutes (±5 minutes) after serving a subject breakfast. All subjects (fed and fasted) will fast (not to consume any food) until 4 hours post dose. Water will be allowed during the fasting period. Subjects will be domiciled at the study center from Day −1 until the morning of Day 5 of each period. Subjects will be discharged from the study center on the morning of Day 5 upon satisfactory safety review and completion of study-related procedures. Safety and tolerability data will be monitored and collected following each dosing period. Periods 1 and 2 will be separated by a washout period of at least 7 days (no more than 10 days) from prior dose to the next dose. In certain instances, a longer washout may be acceptable if previously agreed to.
# Serial blood samples (10 mL) will be collected at predose (0 hour) and at 0.5, 1, 2, 3, 6, 12, 24, 48, 72 and 96 hours post dose for the determination of plasma concentrations of Compound A and the O-desmethyl metabolite of Compound A. Safety will be monitored throughout the study; safety evaluations will include AE reporting, physical examinations, vital sign measurements, ECG, and clinical laboratory safety tests. Concomitant medications will be assessed and recorded throughout the study as well. In addition, during the subjects' stay-in-the clinic (i.e., confinement period), fasting plasma glucose levels will be monitored as part of the clinical laboratory safety tests. For Parts 1 and 2, all subjects will return to the clinic within 7 to 10 days after the last dose for follow up safety assessments. In the event that a subject discontinues prematurely from the study, every reasonable effort should be made (and documented) to ensure that all procedures and evaluations scheduled for the follow-up visit are performed at the time of discontinuation or a follow-up visit should be scheduled within 7 to 10 days from the discontinuation day.
# Part 2 dosing: In Part 2, subjects will fast overnight for at least 8 hours prior to Compound A administration. On the morning of Day 1, each subject will receive a 20-mg tablet of Compound A orally. Subjects randomized to receive Compound A under fed conditions will be a served a standard high fat meal (breakfast).
# The standard high fat meal or its equivalent must be consumed within 30 minutes of serving. Dosing must occur 30 minutes (±5 minutes) after serving the meal. The tablet will be administered with approximately 240 mL of non-carbonated, room temperature water. After dosing, subjects will continue to fast until 4 hours after dosing.
# [5] = Pharmacokinetics of metabolite after 7.5-60 mg Compound A (protocol of U.S. provisional 61/653,436); assay type: in vivo, human; conditions: for concentration at 15 day: human, in vivo, read-out: Ctrough
# Experimental: In certain embodiments, the pharmacokinetic parameters in connection with the metabolite of Compound A produced via administration of 7.5 mg, 15 mg, 30 mg, 45 mg and 60 mg of Compound A are obtained using the protocol set forth in Section 5.2.1 (paragraphs [00497]-[00520]) of U.S. provisional application No. 61/653,436, filed May 31, 2012, which is incorporated by reference herein in its entirety.
# In certain embodiments, the pharmacokinetic parameters set forth herein are mean values obtained from multiple subjects.
# [6] = fed vs fasted, 20 mg Compound A tablet, healthy adult males
# [7] = plasma, single 20-mg oral dose of Compound A tablet, Fasted (n = 11)
# [8] = plasma, single 20-mg oral dose of Compound A tablet, Fed, high fat meal (n = 11)
# [9] = day 1 of administration of about 45 mg of Compound A
# [10] = day 1 of administration of about 60 mg of Compound A
# [11] = upon administration of about 45 mg of Compound A
smiles,measurement,setting,value
"CO[C@H]1CC[C@H](N2C(=O)CNc3ncc(-c4ccc(C(C)(C)O)nc4)nc32)CC1 [Form A, 7-(6-(2-hydroxypropan-2-yl)pyridin-3-yl)-1-((trans)-4-methoxycyclohexyl)-3,4-dihydropyrazino[2,3-b]pyrazin-2(1H)-one]",XRPD diffractogram after full adsorption/desorption cycle,"[1]; DVS cycle, 25° C.",unchanged from the initial Form A
same,hygroscopicity,[1]; DVS moisture sorption/desorption,not hygroscopic
same,water uptake,"[1]; DVS, 25° C., between 0 and 80% relative humidity",< 0.1 % w/w
"CO[C@H]1CC[C@H](N2C(=O)CNc3ncc(-c4ccc(C(C)(C)O)nc4)nc32)CC1 [Compound A, 7-(6-(2-hydroxypropan-2-yl)pyridin-3-yl)-1-((trans)-4-methoxycyclohexyl)-3,4-dihydropyrazino[2,3-b]pyrazin-2(1H)-one]",susceptibility to hydrolysis,[2],susceptible to hydrolysis
same,"CL/F (L/h), geometric mean (geometric CV %)","[3]; plasma, single 20 mg oral dose of Compound A, fasted healthy adult males, Treatment A = API-in-capsule, B = one 20-mg tablet, C = four 5-mg tablets (analyte Compound A)",20.3 (23) L/h
same,pharmacokinetics of tablet formulations versus API in capsule,"[3]; single dose 20 mg, healthy adult male subjects",comparable
same,decrease in Cmax with a high fat meal,[4]; [6],~17%
same,delay in Tmax with a high fat meal,[4]; [6],2 h
same,increase in overall exposure (AUCinf) with a high fat meal,[4]; [6],~20%
same,"CL/F (L/h), geometric mean (CV %)",[4]; [7],19.9 (38) L/h
same,"CL/F (L/h), geometric mean (CV %)",[4]; [8],16.7 (38) L/h
"CC(C)(O)c1ccc(-c2cnc3c(n2)N([C@H]2CC[C@H](O)CC2)C(=O)CN3)cn1 [O-Desmethyl metabolite, 1-((trans)-4-hydroxycyclohexyl)-7-(6-(2-hydroxypropan-2-yl)pyridin-3-yl)-3,4-dihydropyrazino[2,3-b]pyrazin-2(1H)-one]",Tax,"[3]; metabolite, upon administration of about 20 mg of Compound A (protocol of Section 6.5.1)",3 h
same,decrease in Cmax with a high fat meal,[4]; [6],~17%
same,increase in overall exposure (AUCinf) with a high fat meal,[4]; [6],~3%
same,"CL/F (L/h), geometric mean (CV %)",[4]; [7],2.0 (38) L/h
same,"CL/F (L/h), geometric mean (CV %)",[4]; [8],2.0 (36) L/h
same,"t1/2 (h), geometric mean (CV %)",[4]; [8],14.9 (29) h
same,tin,[5]; day 1 of administration of about 30 mg of Compound A,21 h
same,Tax,[5]; [9],3 h
same,tin,[5]; [9],17 h
same,Tax,[5]; [10],5 h
same,tin,[5]; [10],16 h
same,Tax,[5]; day 15 of once a day administration of about 30 mg of Compound A,2 h
same,Tax,[5]; day 15 of once a day administration of about 45 mg of Compound A,2 h
same,Tax,[5]; day 15 of once a day administration of about 60 mg of Compound A,3 h
same,concentration at 15 day,[5]; day 15 of once a day administration of about 7.5 mg of Compound A,0.267 µg/mL
same,concentration at 15 day,[5]; day 15 of once a day administration of about 15 mg of Compound A,0.145 µg/mL
same,Tax,[5]; [11],3 h
same,t1/2,[5]; [11],14.7 h
